The values below come from patent publication US8143226B2, “Tyrosine kinase receptor antagonists and methods of treatment for breast cancer” (The Regents of the University of California, priority 2005, dated 2012).

One data set deals with IGF-1R (Homo sapiens, UniProt P08069). In words: Tyrosine kinase activity of partially purified IGF-1R on poly Glu4:Tyr1 (ELISA). The format is biochemical. Details: made in house; host or cells: CHO cells (CHOIGF-1R / CHO-IGFR), partially purified by wheat germ agglutinin chromatography. Here is the method: IGF-1 and HER2/neu receptors were partially purified by WGA chromatography of cells overexpressing the protein of interest. To isolate IGF-1R, CHO cells transfected with and overexpressing the human IGF-1R (CHOIGF-1R) were plated in T-150 flasks and grown in DMEM supplemented with 10% fetal calf serum (FCS) until 80% confluent. Cells were harvested in the basal state and solubilized in 50 mM HEPES, 10% glycerol, 1% Triton X-100, 150 mM NaCl, 5 μM EGTA, 0.24 mg/ml aminoethyl-benzensulfonyl fluoride (AEBSF), 10 μg/ml aprotinin, 25 mM benzamidine, 10 μg soybean trypsin inhibitor, and 5 μg/ml leuptin for one hour at 4° C. Samples were centrifuged for 60 minutes at 100,000 g and solubilized extract collected. Rodent HER2/neu receptors were collected from MCNeuA cells crown under identical conditions and processed similarly. Lysates from both cell lines were loaded onto a 1 ml wheat germ agglutin (WGA) column (Pharmacia, Piscataway, N.J.), washed with WGA buffer (50 mM HEPES pH 7.6, 150 mM NaCl, 0.1% Triton X-100, 1 mg/ml bacitracin, and 1 mM PMSF). Receptors were then eluted with WGA buffer supplemented with 0.3 N N-Acetyl-D-glucosamine. WGA fractions containing RTK of interest were determined by SDS page and a western blot that employed antibodies against either the IGF-1R or HER2/neu as appropriate. […]
(In general: In an ELISA, binding on a coated surface is turned into a signal by an enzyme label.)

For a further data set, the system named is PDGF receptor. As to conditions: Domin et al. 1994; cited from earlier work.
The test system of the next data set is Akt. The data set is described as follows: IGF-stimulated Akt phosphorylation in neuroblastoma cells. As to conditions: SH-SY5Y and SHEP cells. The format is cell-based, human. Here is the method: Detection of phospho-Akt and phospho-Erk. […] Then, some cultures were treated with 10 nM IGF-I for 15 min. Cultures were immediately placed on ice, the medium was removed, and the cells were lysed in modified RIPA buffer (20 mM Tris, 150 mM NaCl, 1 mM EDTA, 1 mM EGTA, 1% Triton X-100, 0.1% sodium dodecyl sulfate, and 1% deoxycholate). Fifty μg of protein from each sample were separated via SDS-PAGE and transfened to nitrocellulose. Phospho- and total-Akt and -Erk were detected by immunoblotting.

Another data set concerns pancreatic cancer cells. The data set is described as follows: Growth of pancreatic cancer cells in vitro. As to conditions: FIG. 3. Format: cell-based.
The conditions of data set [1]: single injection, mouse, intravenous; cited from earlier work.
For data set [2], the system named is Kelly human neuroblastoma cells. Here is the method:
Briefly, 7×10^6 Kelly human neuroblastoma cells were resuspended in a 1:1 mixture of PBS and Matrigel (BD Clontech Inc.) and 100 μl of the mixture was injected subcutaneously into the flanks of 6-12 week-old BALB/c nude mice. […] Tumors were then harvested, weighed and measured. The formula width^2×length/2 was used to calculate tumor-volumes.

The subject of a further data set is MCF-7/neo cells. In words: Growth of MCF-7/neo cells with RTK inhibitors, 6 days (CyQuant). Format: cell-based. The settings on record: Homo sapiens, MCF7, 144 h, read-out: one half maximal effect on growth. Here is the method: MCF-7/neo or MCF-7/HER2-18 cells were plated in 96 well plates (4×10^3 cells/well) in 100 μl/well of DMEM-10 medium. […] Media with inhibitors was refreshed on day 3 and the cultures were harvested on day 6. The plates were inverted onto paper towels with gentle blotting to remove growth medium without disrupting adherent cells. Each plate was kept at −80° C. until assayed for cell growth. After thawing the plate at room temperature, 200 μl of CyQuant GR solution was added to each well and the plates were incubated in the dark for five minutes. Fluorescence was measured with a SpectraMax Gemini XS fluorescence microplate reader (Molecular Devices) with 480-nm excitation and 520-nm emission.

pIC50: −log10 of the molar value.

Chain of IGF-1R (P08069 31-1367): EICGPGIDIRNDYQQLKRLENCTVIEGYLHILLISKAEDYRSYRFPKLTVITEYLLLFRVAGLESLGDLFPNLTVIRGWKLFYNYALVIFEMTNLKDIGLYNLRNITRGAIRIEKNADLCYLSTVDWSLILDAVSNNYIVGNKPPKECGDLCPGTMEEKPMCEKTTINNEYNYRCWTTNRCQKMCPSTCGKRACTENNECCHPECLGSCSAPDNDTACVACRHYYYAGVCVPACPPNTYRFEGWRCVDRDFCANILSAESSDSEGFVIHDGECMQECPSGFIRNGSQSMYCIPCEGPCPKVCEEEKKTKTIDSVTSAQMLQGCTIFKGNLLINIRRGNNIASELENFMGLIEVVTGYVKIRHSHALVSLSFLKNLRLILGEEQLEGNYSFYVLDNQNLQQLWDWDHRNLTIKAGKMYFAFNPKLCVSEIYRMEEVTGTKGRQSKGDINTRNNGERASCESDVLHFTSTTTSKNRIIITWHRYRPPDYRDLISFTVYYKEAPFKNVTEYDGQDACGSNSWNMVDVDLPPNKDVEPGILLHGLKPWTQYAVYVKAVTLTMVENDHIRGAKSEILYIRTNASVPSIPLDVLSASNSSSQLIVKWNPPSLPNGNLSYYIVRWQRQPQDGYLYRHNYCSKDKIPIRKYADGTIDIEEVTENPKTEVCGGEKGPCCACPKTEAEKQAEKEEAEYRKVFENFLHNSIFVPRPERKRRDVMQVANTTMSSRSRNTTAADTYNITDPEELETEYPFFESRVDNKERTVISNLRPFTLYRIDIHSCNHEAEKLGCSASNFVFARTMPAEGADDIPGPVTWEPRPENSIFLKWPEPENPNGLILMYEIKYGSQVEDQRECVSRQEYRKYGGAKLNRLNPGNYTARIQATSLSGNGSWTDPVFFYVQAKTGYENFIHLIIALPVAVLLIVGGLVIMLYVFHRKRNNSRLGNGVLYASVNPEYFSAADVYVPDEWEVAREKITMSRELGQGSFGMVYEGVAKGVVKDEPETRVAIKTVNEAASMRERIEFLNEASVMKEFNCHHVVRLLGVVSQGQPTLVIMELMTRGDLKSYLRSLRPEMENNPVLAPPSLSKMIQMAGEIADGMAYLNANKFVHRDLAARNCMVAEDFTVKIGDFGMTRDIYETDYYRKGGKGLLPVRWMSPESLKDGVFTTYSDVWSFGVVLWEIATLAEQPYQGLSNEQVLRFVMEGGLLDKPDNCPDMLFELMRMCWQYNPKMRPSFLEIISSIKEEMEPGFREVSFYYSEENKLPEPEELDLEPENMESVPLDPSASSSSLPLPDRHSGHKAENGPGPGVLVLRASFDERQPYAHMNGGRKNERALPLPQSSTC

In the case of `CC(Cc1ccc(O)c(O)c1)C(C)Cc1ccc(O)c(O)c1` (stereo not drawn) [NDGA, nordihydroguaiaretic acid], on IGF-1R (NDGA 20 minutes prior to 10 nM IGF-1), the “lowest concentration reducing IGF-1 stimulated tyrosine phosphorylation of poly Glu4:Tyr1” value was determined as 0.3 µM. Moreover, the “concentration inhibiting IGF-1-stimulated tyrosine kinase activity of isolated IGF-1R” value at IGF-1R (summary statement) is ≤ 10 µM. Further, in the data set on PDGF receptor, the “activation of the PDGF receptor” value is recorded as “inhibits”. Moreover, the “IGF-stimulated Akt phosphorylation” value in the data set on Akt is recorded as “dose-dependent inhibition”. Moreover, the “growth of pancreatic cancer cells in vitro” value in the data set on pancreatic cancer cells was “inhibiting”. Also, in data set [1], the terminal half-life was 2.25 h. The “inhibition of tumor growth” value in data set [2] (50 mg/kg daily for 10 d, nude mice, Kelly xenografts) came out at 50%. Also, in data set [2] (mouse, in vivo), the tolerability in mice result is given as “very well tolerated”. In the data set with MCF-7/neo cells, the pIC50 is 4.90.
